Results as given in paper PMC11738990, “A small-molecule TNIK inhibitor targets fibrosis in preclinical and clinical models” (Nature Biotechnology, 2024).
“And” between values parts separate entries of the source, which are not always exact repeats. Equal values may be shown once.

Tests used:
NHDF cells = test: α-SMA evaluation in NHDF; type: cell-based, human; conditions: TGF-β 0.1 ng/ml, 72 h; read-out: IC50, α-SMA expression
C57BL/6 mice [1] = test: Unilateral ureteral obstruction (UUO) kidney fibrosis model; conditions: for Positive area (%), per mouse: Fig 5B-D Individual Values;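 for all read-outs here: mice had the left ureter ligated on day 0, received treatment from day 0 through day 14 and were killed on day 14 for kidney analysis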
CD-1 mice = conditions: single IV; ref Insilico Medicine, 2021; cited from earlier work
MRC-5 cells = test: TGF-β-induced α-SMA protein expression, western blot; type: cell-based, human; conditions: TGF-β1 2 ng/ml, 72 h; read-out: IC50, TGF-β-induced α-SMA/GAPDH
Procedure: MRC-5 cells were cultured in a monolayer with DMEM high-glucose medium supplemented with 10% FBS at 37 °C with 5% CO2. Cells were seeded in six-well plates in three replicate wells per condition at a density of 2.5 × 10^5 cells per well and cultured for 24 h. […] Vehicle (2% FBS–DMEM, containing 0.1% DMSO) was added into the blank control group and the model group, and pre-incubation was continued for 2 h. Next, TGF-β1 was added into each well of the administration group and the model group (final concentration in each well was 2 ng ml^−1), and the same volume of vehicle was added into each well of the blank control group for 72 h of incubation (the culture medium was changed once after 48 h of incubation). After incubation, the cells were collected and digested with 0.5% trypsin, protein was extracted and total protein content was determined by the BCA method.
For whole-cell lysates, cells were collected and lysed on ice for 20 min with RIPA buffer with protease and phosphatase inhibitors (cOmplete and PhosSTOP, Roche). The protein concentration of the cell lysates was determined using the BCA Protein Assay Kit. […] Integrated intensity of bands from 16-bit blot images was used for quantitation with the software Image Studio Lite. Protein-quantification data of two independent experiments were calculated and analyzed using GraphPad.

C57BL/6 mice [2] = test: LPS-induced acute lung injury model; type: in vivo, mouse; conditions: individual animals, Fig 3E-F;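 note: bronchoalveolar lavage fluid sampled one day after intratracheal LPS challenge, cytokines measured by ELISA in supernatant, lymphocytes counted on Diff-Quick stained cytospin smears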
[3] = INS018_055 3 mg/kg BID, individual animals, Fig 5C-D, 3 mg/kg
[4] = INS018_055 10 mg/kg BID, individual animals, Fig 5C-D, 10 mg/kg
[5] = INS018_055 30 mg/kg BID, individual animals, Fig 5C-D, 30 mg/kg
[6] = G4 INS018_055 3mpk BID, 3 mg/kg
[7] = G5 INS018_055 10mpk BID, 10 mg/kg
[8] = G7 INS018_055 20mpk QD, 20 mg/kg

## CC(C)n1cnc(-c2ccc(F)cc2)c1-c1nc(C(=O)Nc2ccc(N3CCN(C)CC3)cc2)c[nH]1 [INS018_055, 2-[4-(4-fluorophenyl)-1-(prop-2-yl)imidazol-5-yl]-N-[4-(4-methylhexahydropyrazin-1-yl)phenyl]-1H-imidazole-4-carboxamide]
Healthy subjects; SAD any dose N=18
  Body temperature increased: 5.6%
  Cardiac disorders: 11.1%
  Fecal occult positive: 27.8%
  Gastrointestinal disorders: 5.6%
  Headache: 5.6%
  Hypertriglyceridaemia: 27.8%
  Hypotension: 5.6%
  Investigations: 33.3%
  Nervous system disorders: 5.6%
  Sinus bradycardia: 11.1%
  Vascular disorders: 5.6%
  White blood cells urine positive: 0.0%
Healthy subjects; in vivo
  Noninfective gingivitis: 5.6%
  Upper respiratory tract infection: 5.6%
NHDF cells
  IC50: 25 nM
C57BL/6 mice [1]; [3]
  Fibrosis area (sirius red positive area): 2.24 and 2.26 and 1.61 and 1.34 and 1.14 and 1.04
  Kidney hydroxyproline: 6.42 and 7.24 and 6.97 and 8.63 and 7.89 and 3.86 and 2.76 and 8.85
C57BL/6 mice [1]; [4]
  Fibrosis area (sirius red positive area): 0.48 and 0.7 and 0.89 and 0.94 and 0.99 and 0.64 and 0.93 and 1.12
  Kidney hydroxyproline: 4.39 and 2.86 and 3.32 and 6 and 3.14 and 6.84 and 3.33 and 3
C57BL/6 mice [1]; [5]
  Collagen Type 1 score: 2
  Fibrosis area (sirius red positive area): 0.44 and 0.53 and 0.81 and 0.2 and 0.68 and 0.43 and 0.38 and 0.73
  Kidney hydroxyproline: 2.37 and 2.39 and 2.44 and 2.78 and 2.29 and 3.08 and 2.31
C57BL/6 mice [1]; INS018_055 high dose group, value per mouse (501-508) over 5 photos
  Positive area (%), per mouse: 0.43% and 0.38% and 0.73% and 0.44% and 0.53% and 0.81% and 0.20% and 0.68%
C57BL/6 mice [1]; INS018_055 low dose group, value per mouse (301-308) over 5 photos
  Positive area (%), per mouse: 1.34% and 1.14% and 1.04% and 2.24% and 2.26% and 1.61%
C57BL/6 mice [1]; INS018_055 middle dose group, value per mouse (401-408) over 5 photos
  Positive area (%), per mouse: 0.94% and 0.99% and 0.64% and 0.93% and 1.12% and 0.48% and 0.70% and 0.89%
CD-1 mice
  LOAEL: 10 mg/kg
MRC-5 cells
  IC50: 27.1 nM
C57BL/6 mice [2]; [6]
  IL-1β: 76.808 and 90.9173 and 84.4347 and 88.6293 and 81.7653 and 68.4187 and 91.2987 and 66.512
  IL-4: 44.4779 and 48.864 and 44.3266 and 42.2092 and 40.6967 and 44.6291 and 41.1504 and 43.4191
  IL-6: 23.78 and 22.3 and 25.4 and 24.37 and 27.02 and 28.05 and 25.54 and 22.45
  IL-7: 29.29 and 30.58 and 25.61 and 25.43 and 23.95 and 22.3 and 26.16 and 33.16
  Lymphocytes: 9000 and 7000 and 5750 and 18000 and 15600 and 4800 and 11200 and 5600
  TNF-alpha: 286.33 and 268.83 and 288.52 and 360.7 and 260.08 and 336.64 and 303.83 and 209.77
C57BL/6 mice [2]; [7]
  IL-1β: 66.512 and 53.5467 and 55.0721 and 69.944 and 59.2667 and 64.2241 and 56.5974
  IL-4: 47.5028 and 53.8551 and 49.9227 and 42.8141 and 45.5366 and 45.0828 and 51.2839 and 46.8978
  IL-6: 20.39 and 23.04 and 25.84 and 22.45 and 25.99 and 18.47 and 19.8
  IL-7: 19.9 and 17.14 and 19.72 and 14.2 and 24.69 and 21.38 and 23.4 and 26.72
  Lymphocytes: 19800 and 10350 and 7200 and 6000 and 5400 and 8200 and 6450
  TNF-alpha: 238.21 and 262.27 and 306.02 and 187.89 and 181.33 and 336.64 and 196.64 and 198.83
C57BL/6 mice [2]; G6 INS018_055 6mpk QD, 6 mg/kg
  IL-1β: 71.4694 and 80.24 and 88.248 and 64.6054 and 63.0801 and 87.104 and 80.6214
  IL-4: 42.3604 and 46.7466 and 42.8141 and 44.4779 and 47.9565 and 44.7804 and 48.7128 and 38.7305
  IL-6: 27.31 and 23.19 and 22.45 and 27.76 and 33.8 and 25.99 and 28.93 and 26.87
  IL-7: 27.82 and 30.4 and 27.08 and 33.16 and 21.19 and 31.69 and 25.8 and 28.37
  Lymphocytes: 5200 and 1650 and 3850 and 2700 and 5250 and 5500 and 2600
  TNF-alpha: 290.7 and 236.02 and 376.01 and 218.52 and 330.08 and 244.77 and 391.33 and 310.39
C57BL/6 mice [2]; [8]
  IL-1β: 62.6987 and 77.952 and 78.7147 and 61.5547 and 74.52 and 71.8507 and 60.7921 and 57.3601
  IL-4: 48.1078 and 43.2679 and 48.4103 and 52.3427 and 52.0402 and 44.6291 and 51.7377 and 50.074
  IL-6: 22.74 and 25.84 and 21.71 and 18.17 and 26.58 and 23.63 and 22.15 and 25.69
  IL-7: 16.59 and 21.38 and 22.67 and 18.98 and 27.45 and 24.14 and 31.32 and 16.04
  Lymphocytes: 6500 and 7200 and 8250 and 11600 and 6900 and 1650 and 6100 and 2700
  TNF-alpha: 244.77 and 214.14 and 279.77 and 218.52 and 163.83 and 341.01 and 179.15 and 292.89
